Reference: PMC3582829 (European journal of medicinal chemistry, 2012)
Like-named read-outs stand apart in the source and are kept apart here.

How the values were obtained:
TcFPPS = TcFPPS (Trypanosoma cruzi, UniProt Q8WS26); format: biochemical
T. cruzi amastigotes [1] = test: T. cruzi amastigote assay in Vero cells; format: cell-based, Trypanosoma cruzi; conditions: intracellular T. cruzi
T. gondii tachyzoites = conditions: positive control, cited from earlier work
T. cruzi amastigotes [2] = conditions: positive control; cited from earlier work

SMILES | activity towards TcFPPS (in words) (TcFPPS) | activity against T. cruzi amastigotes (in words) (T. cruzi amastigotes [1]) | ED50 T. gondii (T. gondii tachyzoites; listed as risedronate) | ED50 T. gondii (T. gondii tachyzoites) | ED50 T. cruzi amastigotes (T. cruzi amastigotes [2])
CCCCCC(C)NCC(P(=O)(O)O)P(=O)(O)O (stereo not drawn) [Compound 18, 1-[(n-Hept-2-ylamino)ethyl] 1,1-bisphosphonic Acid] | almost devoid of antiparasitic activity | almost devoid of antiparasitic activity |  |  | 
CCCCCCCNCC(O)(P(=O)(O)O)P(=O)(O)O [Compound 21, 1-[(n-Heptylamino)ethyl]-1-hydroxy-1,1-bisphosphonic Acid] | almost devoid of antiparasitic activity | almost devoid of antiparasitic activity |  |  | 
CCCCCCCSCC(P(=O)(O)O)P(=O)(O)O [Compound 36, 1-[(n-Heptylthio)ethyl]-1,1-bisphosphonic Acid] | devoid of anti-T. cruzi activity | devoid of anti-T. cruzi activity |  |  | 
O=P(O)(O)C(O)(Cc1cccnc1)P(=O)(O)O [Risedronate, risedronate] |  |  | 2.4 µM | 2.4 ± 0.7 [29] μM | 55.0 ± 5.0 [68] μM
